Reference: patent publication US20150174194A1, “METHODS FOR TREATING LIVER TRANSPLANT RECIPIENTS” (AbbVie Inc., priority 2013, published 2015)

How the values were obtained:
[1] = Immunosuppressant blood concentrations in liver transplant recipients co-dosed with 3D; type: in vivo, human
Method: Patients (n=34) on stable TAC or CSA therapy, at least 12 months post-LT, fibrosis stage <F2, received 3D +RBV for 24 weeks. When co-dosed with 3D, it was recommended that the prestudy total CSA daily dose be reduced to one-fifth and given QD. For TAC, a dose of 0.5 mg/7 days or 0.2 mg/3 days was recommended. Subsequent dose and dosing frequency modifications in TAC were made based on the individual TAC levels. Observed CSA trough concentrations (Ctrough) were summarized for CSA recipients (n=5) while TAC data (n=29) were interrogated further to profile on-study TAC Ctroughs. A nonlinear mixed effects model was used to characterize TAC concentration-time profiles using NONMEM software. A one compartment pharmacokinetic (PK) model with first order oral absorption and between subject variability on apparent clearance was used to describe the TAC data. The model estimated TAC PK parameters were used to predict TAC concentration-time profiles in order to evaluate TAC dosing strategies when co-dosed with 3D.

[2] = human, in vivo
Excerpt: The Example summarizes the management of concentrations of the immunosuppressants, tacrolimus (TAC) and cyclosporine (CSA) during the treatment.

[3] = co-dosed with 3D, TAC dose 0.2-1 mg, CSA dose 25-75 mg, liver transplant recipients

## C=CC[C@@H]1/C=C(\C)C[C@H](C)C[C@H](OC)[C@H]2O[C@@](O)(C(=O)C(=O)N3CCCC[C@H]3C(=O)O[C@H](/C(C)=C/[C@@H]3CC[C@@H](O)[C@H](OC)C3)[C@H](C)[C@@H](O)CC1=O)[C@H](C)C[C@@H]2OC [TAC, tacrolimus]
[1]; LT recipients with GT1 HCV infection receiving 3D
  Concentrations with recommended dose modifications: within the therapeutic range
[1]; [3]
  Blood concentration, interquartile range (IQR): 3.3 to 6.6 ng/mL
  Blood concentration, median: 4.6 ng/mL
[2]
  Increase in concentration 24 hours after co-dosing with 3D: 17 fold
